Source: article PMC5518309 (ChemMedChem, 2014)
Numbered stars: 1 amine (or outer) side, 2 acyl side, 3 side chain; on linkers, the order of the positions; unused ones are H or OH. Side chains are listed from the residue outwards. Ends that are not written are not given here. Peptide text beside a SMILES is read from it. * marks the point of attachment. Arachidoyl = CCCCCCCCCCCCCCCCCCCC(=O)*; γGlu = O=C(O)[C@H](CCC(=O)[*:2])N[*:1]; Palmitoyl = CCCCCCCCCCCCCCCC(=O)*; Lauroyl = CCCCCCCCCCCC(=O)*; Propionyl = CCC(=O)*

Key:
Assay type in all cases: cell-based
hY1R = target: T1, hY1R (Homo sapiens, UniProt P25929); assay: Inositol phosphate accumulation assay, hY1R; conditions: for Emax: read-out: hY1R Emax
T1 sequence (P25929 1-384): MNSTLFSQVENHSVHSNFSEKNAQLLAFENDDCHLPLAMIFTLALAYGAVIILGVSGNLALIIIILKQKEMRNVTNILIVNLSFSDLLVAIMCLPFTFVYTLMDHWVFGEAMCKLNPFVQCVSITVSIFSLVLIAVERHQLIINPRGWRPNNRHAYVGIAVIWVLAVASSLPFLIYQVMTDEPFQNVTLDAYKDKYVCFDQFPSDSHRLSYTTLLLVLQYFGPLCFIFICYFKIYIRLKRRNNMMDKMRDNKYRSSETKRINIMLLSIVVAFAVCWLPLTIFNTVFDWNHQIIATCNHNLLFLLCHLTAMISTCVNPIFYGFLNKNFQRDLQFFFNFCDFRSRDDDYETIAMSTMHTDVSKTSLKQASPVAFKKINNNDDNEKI

hY4R = hY4R (Homo sapiens, UniProt P50391); assay: Inositol phosphate accumulation assay, hY4R; conditions: for Emax: read-out: hY4R Emax
Sequence of hY4R (P50391 whole entry): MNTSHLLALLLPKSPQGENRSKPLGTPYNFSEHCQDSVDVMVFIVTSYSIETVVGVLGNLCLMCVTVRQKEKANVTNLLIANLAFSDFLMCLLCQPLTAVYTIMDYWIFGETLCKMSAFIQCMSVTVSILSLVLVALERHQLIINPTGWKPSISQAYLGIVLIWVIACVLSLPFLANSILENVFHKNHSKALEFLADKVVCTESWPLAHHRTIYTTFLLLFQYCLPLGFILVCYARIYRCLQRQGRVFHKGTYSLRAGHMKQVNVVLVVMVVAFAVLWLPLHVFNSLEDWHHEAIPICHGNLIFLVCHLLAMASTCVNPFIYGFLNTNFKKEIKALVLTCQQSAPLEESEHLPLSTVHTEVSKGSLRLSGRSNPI

hY5R = target: T2, hY5R (Homo sapiens, UniProt Q15761); assay: Inositol phosphate accumulation assay, hY5R; conditions: for Emax: read-out: hY5R Emax
T2 sequence (Q15761 1-445): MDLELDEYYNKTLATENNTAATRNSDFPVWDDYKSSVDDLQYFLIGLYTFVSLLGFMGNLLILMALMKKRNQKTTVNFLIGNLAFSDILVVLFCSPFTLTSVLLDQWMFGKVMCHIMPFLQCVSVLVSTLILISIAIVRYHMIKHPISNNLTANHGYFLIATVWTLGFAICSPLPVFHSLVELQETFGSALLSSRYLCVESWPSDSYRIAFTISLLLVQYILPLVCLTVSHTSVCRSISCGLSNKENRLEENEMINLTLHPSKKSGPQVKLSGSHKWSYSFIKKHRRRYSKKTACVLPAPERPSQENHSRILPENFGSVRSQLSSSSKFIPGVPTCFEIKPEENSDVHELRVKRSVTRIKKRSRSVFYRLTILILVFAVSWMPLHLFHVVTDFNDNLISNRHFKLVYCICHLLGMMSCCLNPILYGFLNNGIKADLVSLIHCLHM

hY2R = target: T3, hY2R (Homo sapiens, UniProt P49146); assay: Inositol phosphate accumulation assay, hY2R; conditions: for Emax: read-out: hY2R Emax
T3 sequence (P49146 1-381): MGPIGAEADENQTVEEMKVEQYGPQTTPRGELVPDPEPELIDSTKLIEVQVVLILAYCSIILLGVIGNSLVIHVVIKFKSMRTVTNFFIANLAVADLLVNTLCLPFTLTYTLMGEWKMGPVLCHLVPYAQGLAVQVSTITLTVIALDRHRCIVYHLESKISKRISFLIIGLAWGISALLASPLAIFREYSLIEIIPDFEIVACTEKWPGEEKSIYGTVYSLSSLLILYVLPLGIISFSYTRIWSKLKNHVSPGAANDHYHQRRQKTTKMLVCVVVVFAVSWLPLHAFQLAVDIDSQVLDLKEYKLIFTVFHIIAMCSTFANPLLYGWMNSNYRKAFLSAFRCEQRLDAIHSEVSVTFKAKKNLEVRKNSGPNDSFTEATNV

Row | Compound | EC50 (hY1R) [nM] | Emax (hY1R) [%] | EC50 (hY4R) [nM] | Emax (hY4R) [%] | EC50 (hY5R) [nM] | Emax (hY5R) [%] | EC50 (hY2R) [nM] | Emax (hY2R) [%]
1 | CCCCCCCCCCCCCCCC(=O)N[C@@H](CCC(=O)NCCCC[C@H](NC(=O)[C@H](CC(N)=O)NC(=O)[C@@H](NC(=O)[C@H](Cc1ccc(O)cc1)NC(=O)[C@H](CCCNC(=N)N)NC(=O)[C@H](CCCNC(=N)N)NC(=O)[C@H](CC(C)C)NC(=O)[C@H](CC(=O)O)NC(=O)[C@H](C)NC(=O)[C@H](C)NC(=O)[C@H](Cc1ccc(O)cc1)NC(=O)[C@H](CCC(N)=O)NC(=O)[C@H](C)NC(=O)[C@H](CCSC)NC(=O)[C@H](CCC(N)=O)NC(=O)[C@H](CCC(=O)O)NC(=O)[C@@H]1CCCN1C(=O)[C@@H](NC(=O)[C@H](C)NC(=O)[C@H](CC(N)=O)NC(=O)[C@H](CC(=O)O)NC(=O)CNC(=O)[C@@H]1CCCN1C(=O)[C@H](Cc1ccc(O)cc1)NC(=O)[C@@H](NC(=O)[C@@H]1CCCN1C(=O)[C@H](CCC(=O)O)NC(=O)[C@H](CC(C)C)NC(=O)[C@@H]1CCCN1)C(C)C)[C@@H](C)O)[C@@H](C)CC)C(=O)N[C@@H](CC(C)C)C(=O)N[C@H](C(=O)N[C@@H](CCCNC(=N)N)C(=O)N1CCC[C@H]1C(=O)N[C@@H](CCCNC(=N)N)C(=O)N[C@@H](Cc1ccc(O)cc1)C(N)=O)[C@@H](C)O)C(=O)O [18a, [K^30(E-Pam)]hPP2–36] (H-PLEPVYPGDNATPEQMAQYAADLRRYINK([γGlu-Palmitoyl])LTRPRY-NH2) | 76.2 | 85 ± 3 | 1.2 | 78 ± 4 | 1.6 | 75 ± 5 | 21.1 | 92 ± 3
2 | CCC(=O)N[C@@H](CCC(=O)NCCCC[C@H](NC(=O)[C@H](C)NC(=O)[C@H](Cc1ccc(O)cc1)NC(=O)[C@H](CCC(N)=O)NC(=O)[C@H](C)NC(=O)[C@H](CCSC)NC(=O)[C@H](CCC(N)=O)NC(=O)[C@H](CCC(=O)O)NC(=O)[C@@H]1CCCN1C(=O)[C@@H](NC(=O)[C@H](C)NC(=O)[C@H](CC(N)=O)NC(=O)[C@H](CC(=O)O)NC(=O)CNC(=O)[C@@H]1CCCN1C(=O)[C@H](Cc1ccc(O)cc1)NC(=O)[C@@H](NC(=O)[C@@H]1CCCN1C(=O)[C@H](CCC(=O)O)NC(=O)[C@H](CC(C)C)NC(=O)[C@@H]1CCCN1)C(C)C)[C@@H](C)O)C(=O)N[C@@H](CC(=O)O)C(=O)N[C@@H](CC(C)C)C(=O)N[C@@H](CCCNC(=N)N)C(=O)N[C@@H](CCCNC(=N)N)C(=O)N[C@@H](Cc1ccc(O)cc1)C(=O)N[C@H](C(=O)N[C@@H](CC(N)=O)C(=O)N[C@@H](CCSC)C(=O)N[C@@H](CC(C)C)C(=O)N[C@H](C(=O)N[C@@H](CCCNC(=N)N)C(=O)N1CCC[C@H]1C(=O)N[C@@H](CCCNC(=N)N)C(=O)N[C@@H](Cc1ccc(O)cc1)C(N)=O)[C@@H](C)O)[C@@H](C)CC)C(=O)O [compound 9, [K^22(E-Prop)]hPP2–36] (H-PLEPVYPGDNATPEQMAQYAK([γGlu-Propionyl])DLRRYINMLTRPRY-NH2) | > 1000 | 92 ± 4 | 1.1 | 96 ± 6 | 21.9 | 83 ± 2 | > 1000 | 88 ± 6
3 | PLEPVYPGDNATPEQMAQYAKDLRRYINMLTRPRY-NH2 [compound 8, [K^22]hPP2–36] | 51.4 | 101 ± 7 | 1.9 | 91 ± 3 | 6.1 | 89 ± 5 | 67.1 | 107 ± 4
4 | CCCCCCCCCCCCCCCCCCCC(=O)N[C@@H](CCC(=O)NCCCC[C@H](NC(=O)[C@H](CC(N)=O)NC(=O)[C@@H](NC(=O)[C@H](Cc1ccc(O)cc1)NC(=O)[C@H](CCCNC(=N)N)NC(=O)[C@H](CCCNC(=N)N)NC(=O)[C@H](CC(C)C)NC(=O)[C@H](CC(=O)O)NC(=O)[C@H](C)NC(=O)[C@H](C)NC(=O)[C@H](Cc1ccc(O)cc1)NC(=O)[C@H](CCC(N)=O)NC(=O)[C@H](C)NC(=O)[C@H](CCSC)NC(=O)[C@H](CCC(N)=O)NC(=O)[C@H](CCC(=O)O)NC(=O)[C@@H]1CCCN1C(=O)[C@@H](NC(=O)[C@H](C)NC(=O)[C@H](CC(N)=O)NC(=O)[C@H](CC(=O)O)NC(=O)CNC(=O)[C@@H]1CCCN1C(=O)[C@H](Cc1ccc(O)cc1)NC(=O)[C@@H](NC(=O)[C@@H]1CCCN1C(=O)[C@H](CCC(=O)O)NC(=O)[C@H](CC(C)C)NC(=O)[C@@H]1CCCN1)C(C)C)[C@@H](C)O)[C@@H](C)CC)C(=O)N[C@@H](CC(C)C)C(=O)N[C@H](C(=O)N[C@@H](CCCNC(=N)N)C(=O)N1CCC[C@H]1C(=O)N[C@@H](CCCNC(=N)N)C(=O)N[C@@H](Cc1ccc(O)cc1)C(N)=O)[C@@H](C)O)C(=O)O [compound 19, [K^30(E-Ara)]hPP2–36] (H-PLEPVYPGDNATPEQMAQYAADLRRYINK([γGlu-Arachidoyl])LTRPRY-NH2) | 25.1 | 98 ± 4 | 2.5 | 84 ± 7 | 0.6 | 69 ± 10 | 4.9 | 88 ± 5
5 | CCCCCCCCCCCC(=O)N[C@@H](CCC(=O)NCCCC[C@H](NC(=O)[C@H](CC(N)=O)NC(=O)[C@@H](NC(=O)[C@H](Cc1ccc(O)cc1)NC(=O)[C@H](CCCNC(=N)N)NC(=O)[C@H](CCCNC(=N)N)NC(=O)[C@H](CC(C)C)NC(=O)[C@H](CC(=O)O)NC(=O)[C@H](C)NC(=O)[C@H](C)NC(=O)[C@H](Cc1ccc(O)cc1)NC(=O)[C@H](CCC(N)=O)NC(=O)[C@H](C)NC(=O)[C@H](CCSC)NC(=O)[C@H](CCC(N)=O)NC(=O)[C@H](CCC(=O)O)NC(=O)[C@@H]1CCCN1C(=O)[C@@H](NC(=O)[C@H](C)NC(=O)[C@H](CC(N)=O)NC(=O)[C@H](CC(=O)O)NC(=O)CNC(=O)[C@@H]1CCCN1C(=O)[C@H](Cc1ccc(O)cc1)NC(=O)[C@@H](NC(=O)[C@@H]1CCCN1C(=O)[C@H](CCC(=O)O)NC(=O)[C@H](CC(C)C)NC(=O)[C@@H]1CCCN1)C(C)C)[C@@H](C)O)[C@@H](C)CC)C(=O)N[C@@H](CC(C)C)C(=O)N[C@H](C(=O)N[C@@H](CCCNC(=N)N)C(=O)N1CCC[C@H]1C(=O)N[C@@H](CCCNC(=N)N)C(=O)N[C@@H](Cc1ccc(O)cc1)C(N)=O)[C@@H](C)O)C(=O)O [compound 17, [K^30(E-Laur)]hPP2–36] (H-PLEPVYPGDNATPEQMAQYAADLRRYINK([γGlu-Lauroyl])LTRPRY-NH2) | > 1000 | 81 ± 4 | 3.6 | 83 ± 5 | 38.8 | 81 ± 5 | 296 | 98 ± 4
6 | CCCCCCCCCCCCCCCC(=O)N[C@@H](CCC(=O)NCCCC[C@H](NC(=O)[C@H](C)NC(=O)[C@H](Cc1ccc(O)cc1)NC(=O)[C@H](CCC(N)=O)NC(=O)[C@H](C)NC(=O)[C@H](CCSC)NC(=O)[C@H](CCC(N)=O)NC(=O)[C@H](CCC(=O)O)NC(=O)[C@@H]1CCCN1C(=O)[C@@H](NC(=O)[C@H](C)NC(=O)[C@H](CC(N)=O)NC(=O)[C@H](CC(=O)O)NC(=O)CNC(=O)[C@@H]1CCCN1C(=O)[C@H](Cc1ccc(O)cc1)NC(=O)[C@@H](NC(=O)[C@@H]1CCCN1C(=O)[C@H](CCC(=O)O)NC(=O)[C@H](CC(C)C)NC(=O)[C@@H]1CCCN1)C(C)C)[C@@H](C)O)C(=O)N[C@@H](CC(=O)O)C(=O)N[C@@H](CC(C)C)C(=O)N[C@@H](CCCNC(=N)N)C(=O)N[C@@H](CCCNC(=N)N)C(=O)N[C@@H](Cc1ccc(O)cc1)C(=O)N[C@H](C(=O)N[C@@H](CC(N)=O)C(=O)N[C@@H](CCSC)C(=O)N[C@@H](CC(C)C)C(=O)N[C@H](C(=O)N[C@@H](CCCNC(=N)N)C(=O)N1CCC[C@H]1C(=O)N[C@@H](CCCNC(=N)N)C(=O)N[C@@H](Cc1ccc(O)cc1)C(N)=O)[C@@H](C)O)[C@@H](C)CC)C(=O)O [compound 12, [K^22(E-Pam)]hPP2–36] (H-PLEPVYPGDNATPEQMAQYAK([γGlu-Palmitoyl])DLRRYINMLTRPRY-NH2) | 16.5 | 93 ± 6 | 1.5 | 78 ± 4 | 1.9 | 81 ± 6 | 1.7 | 103 ± 12
